# Legend:
# Experiment in all cases: relative viability (nuclei count vs DMSO), 5 days (fraction); higher = more cells survive
# COR-L 105 = test system: COR-L 105
# Method in brief: (§1)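 One day after seeding in 1536-well plates, lung cancer cell lines were dosed by pin tool. Dosing was either single-drug or a fixed anchor-drug dose plus five library-drug doses (not always all listed) in √10 steps. After 5 days, nuclei were stained in one fix-and-stain step and counted on 4× images, and relative viability is the nuclei count of treated wells over that of vehicle wells, given as the median of duplicate plates.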
# COR-L23 = test system: COR-L23
# Method in brief: as §1
# EKVX = test system: EKVX
# Method in brief: as §1
# HARA = test system: HARA
# Method in brief: as §1
# HOP-62 = test system: HOP-62
# Method in brief: as §1
# NCI-H1355 = test system: NCI-H1355
# Method in brief: as §1
# NCI-H1395 = test system: NCI-H1395
# Method in brief: as §1
# NCI-H1734 = test system: NCI-H1734
# Method in brief: as §1
# NCI-H1755 = test system: NCI-H1755
# Method in brief: as §1
# NCI-H1793 = test system: NCI-H1793
# Method in brief: as §1
# NCI-H1993 = test system: NCI-H1993
# Method in brief: as §1
# NCI-H2009 = test system: NCI-H2009
# Method in brief: as §1
# NCI-H2170 = test system: NCI-H2170
# Method in brief: as §1
# NCI-H2342 = test system: NCI-H2342
# Method in brief: as §1
# NCI-H2347 = test system: NCI-H2347
# Method in brief: as §1
# NCI-H322M = test system: NCI-H322M
# Method in brief: as §1
# NCI-H358 = test system: NCI-H358
# Method in brief: as §1
# NCI-H522 = test system: NCI-H522
# Method in brief: as §1
# NCI-H647 = test system: NCI-H647
# Method in brief: as §1
# NCI-H838 = test system: NCI-H838
# Method in brief: as §1
# PC-14 = test system: PC-14
# Method in brief: as §1
# SK-MES-1 = test system: SK-MES-1
# Method in brief: as §1
# UMC-11 = test system: UMC-11
# Method in brief: as §1
compound,measurement,setting,value
C[C@@H]1CN(CC(=O)Nc2ccc3c(c2)Cc2cccc(-c4cc(=O)cc(N5CCOCC5)o4)c2S3)C[C@H](C)O1 + Nc1ncn([C@H]2C[C@H](O)[C@@H](CO)O2)c(=O)n1 [Decitabine] (partner 2 µM),relative viability,COR-L 105; first compound 0.04 µM,0.644
same,relative viability,COR-L 105; first compound 0.1265 µM,0.661
same,relative viability,COR-L 105; first compound 0.4 µM,0.723
same,relative viability,COR-L 105; first compound 4 µM,0.654
same,relative viability,COR-L23; first compound 0.04 µM,0.431
same,relative viability,COR-L23; first compound 0.1265 µM,0.445
same,relative viability,COR-L23; first compound 0.4 µM,0.569
same,relative viability,COR-L23; first compound 4 µM,0.612
same,relative viability,EKVX; first compound 0.04 µM,0.302
same,relative viability,EKVX; first compound 0.1265 µM,0.368
same,relative viability,EKVX; first compound 0.4 µM,0.303
same,relative viability,EKVX; first compound 4 µM,0.317
same,relative viability,HARA; first compound 0.04 µM,0.594
same,relative viability,HARA; first compound 0.1265 µM,0.522
same,relative viability,HARA; first compound 0.4 µM,0.454
same,relative viability,HARA; first compound 4 µM,0.717
same,relative viability,HOP-62; first compound 0.04 µM,0.229
same,relative viability,HOP-62; first compound 0.1265 µM,0.202
same,relative viability,HOP-62; first compound 0.4 µM,0.187
same,relative viability,HOP-62; first compound 4 µM,0.245
same,relative viability,NCI-H1355; first compound 0.04 µM,0.389
same,relative viability,NCI-H1355; first compound 0.1265 µM,0.338
same,relative viability,NCI-H1355; first compound 0.4 µM,0.363
same,relative viability,NCI-H1355; first compound 4 µM,0.375
same,relative viability,NCI-H1395; first compound 0.1265 µM,0.763
same,relative viability,NCI-H1395; first compound 0.4 µM,0.653
same,relative viability,NCI-H1395; first compound 4 µM,0.752
same,relative viability,NCI-H1734; first compound 0.04 µM,0.567
same,relative viability,NCI-H1734; first compound 0.1265 µM,0.507
same,relative viability,NCI-H1734; first compound 0.4 µM,0.474
same,relative viability,NCI-H1734; first compound 4 µM,0.574
same,relative viability,NCI-H1755; first compound 0.04 µM,0.708
same,relative viability,NCI-H1755; first compound 0.1265 µM,0.737
same,relative viability,NCI-H1755; first compound 0.4 µM,0.77
same,relative viability,NCI-H1755; first compound 4 µM,0.796
same,relative viability,NCI-H1793; first compound 0.04 µM,0.536
same,relative viability,NCI-H1793; first compound 0.1265 µM,0.552
same,relative viability,NCI-H1793; first compound 0.4 µM,0.503
same,relative viability,NCI-H1793; first compound 4 µM,0.526
same,relative viability,NCI-H1993; first compound 0.04 µM,0.701
same,relative viability,NCI-H1993; first compound 0.1265 µM,0.55
same,relative viability,NCI-H1993; first compound 0.4 µM,0.566
same,relative viability,NCI-H1993; first compound 4 µM,0.644
same,relative viability,NCI-H2009; first compound 0.04 µM,0.31
same,relative viability,NCI-H2009; first compound 0.1265 µM,0.363
same,relative viability,NCI-H2009; first compound 0.4 µM,0.383
same,relative viability,NCI-H2009; first compound 4 µM,0.34
same,relative viability,NCI-H2170; first compound 0.04 µM,0.492
same,relative viability,NCI-H2170; first compound 0.1265 µM,0.459
same,relative viability,NCI-H2170; first compound 0.4 µM,0.508
same,relative viability,NCI-H2170; first compound 4 µM,0.464
same,relative viability,NCI-H2342; first compound 0.04 µM,0.76
same,relative viability,NCI-H2342; first compound 0.1265 µM,0.779
same,relative viability,NCI-H2342; first compound 0.4 µM,0.71
same,relative viability,NCI-H2342; first compound 4 µM,0.704
same,relative viability,NCI-H2347; first compound 0.04 µM,0.581
same,relative viability,NCI-H2347; first compound 0.1265 µM,0.624
same,relative viability,NCI-H2347; first compound 0.4 µM,0.693
same,relative viability,NCI-H2347; first compound 4 µM,0.637
same,relative viability,NCI-H322M; first compound 0.04 µM,0.526
same,relative viability,NCI-H322M; first compound 0.1265 µM,0.723
same,relative viability,NCI-H322M; first compound 0.4 µM,0.657
same,relative viability,NCI-H322M; first compound 4 µM,0.638
same,relative viability,NCI-H358; first compound 0.04 µM,0.181
same,relative viability,NCI-H358; first compound 0.1265 µM,0.204
same,relative viability,NCI-H358; first compound 0.4 µM,0.172
same,relative viability,NCI-H358; first compound 4 µM,0.14
same,relative viability,NCI-H522; first compound 0.04 µM,0.663
same,relative viability,NCI-H522; first compound 0.1265 µM,0.689
same,relative viability,NCI-H522; first compound 0.4 µM,0.641
same,relative viability,NCI-H522; first compound 4 µM,0.724
same,relative viability,NCI-H647; first compound 0.04 µM,0.442
same,relative viability,NCI-H647; first compound 0.1265 µM,0.376
same,relative viability,NCI-H647; first compound 0.4 µM,0.369
same,relative viability,NCI-H647; first compound 4 µM,0.346
same,relative viability,NCI-H838; first compound 0.04 µM,0.46
same,relative viability,NCI-H838; first compound 0.1265 µM,0.472
same,relative viability,NCI-H838; first compound 0.4 µM,0.518
same,relative viability,NCI-H838; first compound 4 µM,0.492
same,relative viability,PC-14; first compound 0.04 µM,0.235
same,relative viability,PC-14; first compound 0.1265 µM,0.253
same,relative viability,PC-14; first compound 0.4 µM,0.192
same,relative viability,PC-14; first compound 4 µM,0.167
same,relative viability,SK-MES-1; first compound 0.04 µM,0.356
same,relative viability,SK-MES-1; first compound 0.1265 µM,0.368
same,relative viability,SK-MES-1; first compound 0.4 µM,0.433
same,relative viability,SK-MES-1; first compound 4 µM,0.446
same,relative viability,UMC-11; first compound 0.04 µM,0.477
same,relative viability,UMC-11; first compound 0.1265 µM,0.62
same,relative viability,UMC-11; first compound 0.4 µM,0.728
same,relative viability,UMC-11; first compound 4 µM,0.513

# Reference: the supplement of paper PMC10307832
